Data taken from patent US6756387B2, “Hydroxyphenyl-piperidin-4-ylidene-methyl-benzamide derivatives for the treatment of pain” (AstraZeneca AB, priority 2000, dated 2004).

Legend:
Format in all cases: biochemical
[1] = target: T1, delta receptors, rat brain membranes (Rattus norvegicus, UniProt P33533); test: GTP[γ]35S binding functional assay, homogenised rat brain; conditions: rat brain homogenate, read-out: RAT BRAIN % E Max
T1 construct: from tissue; host or cells: rat brain homogenate
Procedure: (§1) B. Mouse and rat brains were weighed and rinsed in ice-cold PBS (containing 2.5 mM EDTA, pH 7.4). The brains were homogenized with a polytron for 15 sec (mouse) or 30 sec (rat) in ice-cold lysis buffer (50 mM Tris, pH 7.0, 2.5 mM EDTA, with phenylmethylsulfonyl fluoride added just prior use to […] from a 0.5M stock in DMSO:ethanol).
(§2) The agonist activity of the compounds is measured by determining the degree to which the compounds receptor complex activates the binding of GTP to G-proteins to which the receptors are coupled. In the GTP binding assay, GTP[γ]^35S is combined with test compounds and membranes from HEK-293S cells expressing the cloned human opioid receptors or from homogenised rat and mouse brain. Agonists stimulate GTP[γ]^35S binding in these membranes. The EC50 and Emax values of compounds are determined from dose-response curves. Right shifts of the dose response curve by the delta antagonist naltrindole are performed to verify that agonist activity is mediated through delta receptors.

[2] = target: T2, cloned human δ receptor (HDELTA) (Homo sapiens, UniProt P41143); test: GTP[γ]35S binding functional assay, membranes from HEK-293S cells expressing cloned human opioid receptors; conditions: HEK-293S membranes, read-out: HDELTA % E Max
T2 construct: expressed in transfected cells; host or cells: human 293S (HEK-293S) cells, geneticin-selected
Procedure: A. Human 293S cells expressing cloned human μ, δ, and κ receptors and neomycin resistance were grown in suspension at 37° C. and 5% CO2 in shaker flasks containing calcium-free DMEM10% FBS, 5% BCS, 0.1% Pluronic F-68, and 600 μg/ml geneticin.
Cells were pelleted and resuspended in lysis buffer (50 mM Tris, pH 7.0, 2.5 mM EDTA, with PMSF added just prior to use to 0.1 mM from a 0.1 M stock in ethanol), incubated on ice for 15 min, then homogenized with a polytron for 30 sec. The suspension was spun at 1,000 g (max) for 10 min at 4° C. The supernatant was saved on ice and the pellets resuspended and spun as before. The supernatants from both spins were combined and spun at 46,000 g(max) for 30 min. The pellets were resuspended in cold Tris buffer (50 mM Tris/Cl, pH 7.0) and spun again. The final pellets were resuspended in membrane buffer (50 mM Tris, 0.32 M sucrose, pH 7.0). Aliquots (1 ml) in polypropylene tubes were frozen in dry ice/ethanol and stored at −70° C. until use. The protein concentrations were determined by a modified Lowry assay with SDS.
as §2

[3] = target: T3, delta receptors, mouse brain membranes (Mus musculus, UniProt P32300); test: GTP[γ]35S binding functional assay, homogenised mouse brain; conditions: mouse brain homogenate, read-out: MOUSE BRAIN % E Max
T3 construct: from tissue; host or cells: mouse brain homogenate
Procedure: as §1, §2

T1 sequence (P33533 whole entry): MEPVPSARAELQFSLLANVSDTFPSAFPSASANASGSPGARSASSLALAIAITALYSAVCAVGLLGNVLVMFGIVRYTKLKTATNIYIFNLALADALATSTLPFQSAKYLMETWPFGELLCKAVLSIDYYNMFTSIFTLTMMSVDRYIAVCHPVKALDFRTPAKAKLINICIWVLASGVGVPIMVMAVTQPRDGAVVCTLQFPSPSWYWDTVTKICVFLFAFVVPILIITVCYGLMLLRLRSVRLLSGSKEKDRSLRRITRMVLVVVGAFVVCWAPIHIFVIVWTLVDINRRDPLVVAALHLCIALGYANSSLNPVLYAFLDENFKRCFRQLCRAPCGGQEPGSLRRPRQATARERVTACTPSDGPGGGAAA
T2 sequence (P41143 whole entry): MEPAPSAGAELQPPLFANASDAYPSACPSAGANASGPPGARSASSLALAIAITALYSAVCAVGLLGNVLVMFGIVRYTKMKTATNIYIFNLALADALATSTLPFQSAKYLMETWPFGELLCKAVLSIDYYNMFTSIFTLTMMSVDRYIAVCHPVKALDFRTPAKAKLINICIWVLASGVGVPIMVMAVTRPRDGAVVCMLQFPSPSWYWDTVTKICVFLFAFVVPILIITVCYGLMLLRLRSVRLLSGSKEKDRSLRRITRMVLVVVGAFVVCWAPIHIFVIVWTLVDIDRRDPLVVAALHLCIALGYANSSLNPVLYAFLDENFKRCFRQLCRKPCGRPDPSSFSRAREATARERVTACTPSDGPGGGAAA
T3 sequence (P32300 whole entry): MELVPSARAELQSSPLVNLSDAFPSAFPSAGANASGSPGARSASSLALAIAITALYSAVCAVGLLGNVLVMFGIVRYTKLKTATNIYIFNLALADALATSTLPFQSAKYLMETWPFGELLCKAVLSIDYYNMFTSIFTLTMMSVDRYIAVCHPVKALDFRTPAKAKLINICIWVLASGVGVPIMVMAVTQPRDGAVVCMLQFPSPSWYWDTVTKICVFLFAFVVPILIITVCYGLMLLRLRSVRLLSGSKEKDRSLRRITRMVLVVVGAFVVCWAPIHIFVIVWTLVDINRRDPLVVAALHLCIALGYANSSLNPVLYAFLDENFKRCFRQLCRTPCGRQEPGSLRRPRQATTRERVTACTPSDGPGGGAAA

Compound	Emax [1] [%]	Emax [2] [%]	Emax [3] [%]
CCN(CC)C(=O)c1ccc(C(=C2CCN(Cc3cccs3)CC2)c2cccc(O)c2)cc1 [Example 3, N,N-diethyl-4-{(3-hydroxyphenyl)[1-(2-thienylmethyl)-4-piperidinylidene]methyl}benzamide]	168	98.2	186
CCN(CC)C(=O)c1ccc(C(=C2CCN(Cc3ccco3)CC2)c2cccc(O)c2)cc1 [Example 5, N,N-diethyl-4-[[1-(2-furylmethyl)-4-piperidinylidene](3-hydroxyphenyl)methyl]benzamide]	132	94.8	134
CCN(CC)C(=O)c1ccc(C(=C2CCN(Cc3c[nH]cn3)CC2)c2cccc(O)c2)cc1 [Example 10, N,N-diethyl-4-{(3-hydroxyphenyl)[1-(1H-imidazol-4-ylmethyl)-4-piperidinylidene]methyl}benzamide]	102	107	104
CCN(CC)C(=O)c1ccc(C(=C2CCN(Cc3nccs3)CC2)c2cccc(O)c2)cc1 [Example 11, N,N-diethyl-4-{(3-hydroxyphenyl)[1-(1,3-thiazol-2-ylmethyl)-4-piperidinylidene]methyl}benzamide]	120	115	118
CCN(CC)C(=O)c1ccc(C(=C2CCN(Cc3ccncc3)CC2)c2cccc(O)c2)cc1 [Example 8, N,N-diethyl-4-{(3-hydroxyphenyl)[1-(4-pyridinylmethyl)-4-piperidinylidene]methyl}benzamide]	81.4	112	78.2
CCN(CC)C(=O)c1ccc(C(=C2CCN(Cc3ccccn3)CC2)c2cccc(O)c2)cc1 [Example 7, N,N-diethyl-4-{(3-hydroxyphenyl)[1-(2-pyridinylmethyl)-4-piperidinylidene]methyl}benzamide]	135	103	138
CCN(CC)C(=O)c1ccc(C(=C2CCN(Cc3ccccc3)CC2)c2cccc(O)c2)cc1 [Example 2, N,N-diethyl-4-(3-hydroxylphenyl-N-benzyl-piperidin-4-ylidene-methyl)-benzamide]	112	104	104
CCN(CC)C(=O)c1ccc(C(=C2CCN(Cc3ncc[nH]3)CC2)c2cccc(O)c2)cc1 [Example 9, N,N-diethyl-4-{(3-hydroxyphenyl)[1-(1H-imidazol-2-ylmethyl)-4-piperidinylidene]methyl}benzamide]	151	106	136
